# Test results taken from US20190054051A1, “DOPA Formulations for Treatments of Parkinson's Disease” (The Board of Trustees of the Leland Stanford Junior …, priority 2017, published 2019).
# Legend:
# [1] = tested on: ChAT; test: ChAT immunoreactivity (fluorescence intensity) in cholinergic interneurons; set-up: species or system mice; conditions: mouse, in vivo
# Procedure: Immunohistochemical analysis was performed with commonly known procedures. Mice were transcardially perfused with ice-cold 4% paraformaldehyde in PBS 45 minutes after challenge with L-DOPA or DOPA-ranitidine formulations. The brain was dissected out, post-fixed in 4% PFA overnight at 4° C., and cryoprotected using 30% sucrose in PBS. Cryoprotected brains were stored at −80° C. For TH immunostaining 30 μm coronal sections were taken around both CPu and substantia nigra, to examine dopaminergic denervation at the level of striatum and neuronal cell body loss at the level of substantia nigra. For pERK, ChAT, FoxP and AFos B expression, only coronal sections at the level of striatum was used. Free-floating coronal sections were blocked in blocking buffer (PBS with 2% BSA, 0.3% TritonX-100) for 1 hr at room temperature with gentle rocking. Sections were then transferred to incubation solution (PBS with 1% BSA, 0.03% TritonX-100) and the respective primary antibody as shown in table 1 and incubated at 4° C. for 24-48 hrs with gentle shaking. The sections were mounted with fluorescein or DAPI containing mounting media and serial z stack images were taken using Zeiss laser scanning confocal microscope LSM 800 at Stanford Cell Sciences Imaging facility. […]
# [2] = tested on: p38; test: Western blot of phospho p38 and total p38 in striatum; type: in vivo, mice
# Procedure: After behavioral testing, mice again received their assigned injection and then, 45 minutes later, were decapitated under anesthesia. Tissue samples were processed as follows. Briefly, the brain was dissected, rapidly frozen on dry ice, and stored at −80° C. Striatal tissue was collected from 100 μm coronal slices cut at the level of striatum using a cryostat (Leica CM1950, Leica Biosystems Inc, Buffalo Groove, Ill.). Striatal samples from the intact and the lesioned hemisphere were separately collected in 150p1 of lysis solution (Totally RNA, Ambion, Austin, Tex.). Care was taken to make sure that the tissue samples were collected from similar regions in all the brain samples analyzed, since there are differences in the expression of GRKs from rostral to caudal CPu. […]
# Western blots were quantified using band densitometry in Image J software (NIH version). […] Results are represented as group mean±SEM and analyzed using one-way or repeated-measures ANOVA (RM-ANOVA), with post hoc Bonferroni tests. The mouse cylinder test was analyzed with RM-ANOVA, with group (DOPA and DOPA-ranitidine formulations) as a between-group factor and saline vs. DOPA treatment as a within-group factor. AIMs scores were analyzed using the Kruskal Wallis test for pre-testing (DOPA injected animals) and the Mann-Whitney U test for the post-testing sessions (DOPA vs DOPA-ranitidine formulations). […]
structure (smiles),measurement,setting,value
"N[C@@H](Cc1ccc(O)c(O)c1)C(=O)O [L-DOPA, L-3,4-dihydroxyphenylalanine]","ChAT immunoreactivity (FI), lesioned side versus intact side",[1],slightly lower on the lesioned side than the intact side
same,p38 phosphorylation in the lesioned hemisphere,[2],increased in the lesioned hemisphere only after DOPA treatment
